Experimental data as given in ChEMBL document CHEMBL1145390, “Synthesis and preliminary biological characterization of new semisynthetic derivatives of ramoplanin” (J Med Chem, 2007).
≈ marks a conversion by molar mass, not a printed value.

Columns and labels:
[1] = test system: Enterococcus faecalis; assay: Antibacterial activity against Enterococcus faecalis after 24 hrs by broth microdilution method; type: functional
[2] = test system: Staphylococcus aureus; assay: Antibacterial activity against Staphylococcus aureus Smith after 24 hrs by broth microdilution method; type: functional
[3] = test system: Staphylococcus aureus; assay: Antibacterial activity against methicillin-resistant Staphylococcus aureus clinical isolate after 24 hrs by broth microdilution method; type: functional; conditions: read-out: MIC
[4] = test system: Staphylococcus aureus; assay: Antibacterial activity against methicillin-resistant and vancomycin-intermediate resistant Staphylococcus aureus clinical isolate after 24 hrs by broth microdilution method; type: functional
[5] = test system: Staphylococcus aureus; assay: Antibacterial activity against vancomycin-intermediate resistant Staphylococcus aureus clinical isolate after 24 hrs by broth microdilution method; type: functional
[6] = test system: Streptococcus pyogenes; assay: Antibacterial activity against Streptococcus pyogenes C203 after 24 hrs by broth microdilution method; type: functional; conditions: C203, 24 h
[7] = test system: Enterococcus faecalis; assay: Antibacterial activity against vancomycin A-resistant Enterococcus faecalis after 24 hrs by broth microdilution method; type: functional
[8] = test system: Enterococcus faecium; assay: Antibacterial activity against Enterococcus faecium after 24 hrs by broth microdilution method; type: functional
[9] = test system: Enterococcus faecium; assay: Antibacterial activity against vancomycin A-resistant Enterococcus faecium clinical isolate after 24 hrs by broth microdilution method; type: functional
[10] = test system: Escherichia coli; assay: Antibacterial activity against Escherichia coli SKF-12140 after 24 hrs by broth microdilution method; type: functional
[11] = test system: Candida albicans; assay: Antifungal activity against Candida albicans SKF-2270 after 24 hrs by broth microdilution method; type: functional
[12] = Toxicity assessed as hemolysis in erythrocytes at 180 mg/L; type: cell-based, Erythrocyte; conditions: human; for hemolysis at 180 mg/L: erythrocytes, read-out: Activity
[13] = Toxicity assessed as hemolysis in erythrocytes at 90 mg/L; type: cell-based, Erythrocyte; conditions: human; for hemolysis at 90 mg/L: erythrocytes, read-out: Activity

Structure (SMILES) | MIC ([1]; read-out: MIC) [µg/mL] | MIC ([2]; read-out: MIC) [µg/mL] | MIC [3] [µg/mL] | MIC ([4]; read-out: MIC) [µg/mL] | MIC [5] [µg/mL] | MIC ([6]; read-out: MIC) [µg/mL] | MIC ([7]; read-out: MIC) [µg/mL] | MIC ([8]; read-out: MIC) [µg/mL] | MIC ([9]; read-out: MIC) [µg/mL] | MIC ([10]; read-out: MIC) [µg/mL] | MIC ([11]; read-out: MIC) [µg/mL] | hemolysis at 180 mg/L [12] [%] | hemolysis at 90 mg/L [13] [%] | other results
CC(C)C[C@@H]1NC(=O)CNC(=O)[C@H](c2ccc(O)cc2)NC(=O)[C@@H]([C@@H](C)O)NC(=O)[C@H](c2ccc(O[C@H]3O[C@H](CO)[C@@H](O)[C@H](O)[C@@H]3O[C@H]3O[C@H](CO)[C@@H](O)[C@H](O)[C@@H]3O)cc2)NC(=O)[C@@H](CCCN)NC(=O)[C@H](Cc2ccccc2)NC(=O)[C@H]([C@@H](C)O)NC(=O)[C@@H](c2ccc(O)cc2)NC(=O)[C@H](c2ccc(O)cc2)NC(=O)[C@@H](C(C)C)NC(=O)[C@@H](CCCN)NC(=O)[C@@H](c2ccc(O)cc2)NC(=O)[C@@H](CNC(=O)[C@H](CC(N)=O)NC(=O)c2ccccc2)[C@@H](C(N)=O)OC(=O)[C@H](c2ccc(O)c(Cl)c2)NC(=O)[C@@H](C)NC1=O | 4 (≈ 1.58 µM) | 8 (≈ 3.16 µM) | 8 (≈ 3.16 µM) | > 32 | 32 (≈ 12.6 µM) | 0.125 (≈ 0.0493 µM) | 4 (≈ 1.58 µM) | 8 (≈ 3.16 µM) | 4 (≈ 1.58 µM) | > 32 | > 32 | 4 | 0 | 
CCCCCCCC(=O)N[C@@H](CC(N)=O)C(=O)NC[C@@H]1C(=O)N[C@H](c2ccc(O)cc2)C(=O)N[C@H](CCCN)C(=O)N[C@H](C(C)C)C(=O)N[C@@H](c2ccc(O)cc2)C(=O)N[C@H](c2ccc(O)cc2)C(=O)N[C@@H]([C@@H](C)O)C(=O)N[C@@H](Cc2ccccc2)C(=O)N[C@H](CCCN)C(=O)N[C@@H](c2ccc(O[C@H]3O[C@H](CO)[C@@H](O)[C@H](O)[C@@H]3O[C@H]3O[C@H](CO)[C@@H](O)[C@H](O)[C@@H]3O)cc2)C(=O)N[C@H]([C@@H](C)O)C(=O)N[C@@H](c2ccc(O)cc2)C(=O)NCC(=O)N[C@@H](CC(C)C)C(=O)N[C@H](C)C(=O)N[C@@H](c2ccc(O)c(Cl)c2)C(=O)O[C@@H]1C(N)=O |  |  | 0.0005 (≈ 0.000196 µM) |  | 0.002 (≈ 0.000782 µM) |  |  |  |  |  |  |  |  | MIC [1]: 0.125 µg/mL (≈ 0.0489 µM); MIC [2]: 0.25 µg/mL (≈ 0.0978 µM); MIC [4]: 4 µg/mL (≈ 1.56 µM); MIC [6]: < 0.03 µg/mL; MIC [7]: 0.06 µg/mL (≈ 0.0235 µM); MIC [8]: 0.25 µg/mL (≈ 0.0978 µM); MIC [9]: 0.125 µg/mL (≈ 0.0489 µM); MIC [10]: > 32 µg/mL; MIC [11]: > 32 µg/mL; Activity ([12]; erythrocyte): 16%; Activity ([13]; erythrocyte): 0%
CCCCCCCCCCCCCC(=O)N[C@@H](CC(N)=O)C(=O)NC[C@@H]1C(=O)N[C@H](c2ccc(O)cc2)C(=O)N[C@H](CCCN)C(=O)N[C@H](C(C)C)C(=O)N[C@@H](c2ccc(O)cc2)C(=O)N[C@H](c2ccc(O)cc2)C(=O)N[C@@H]([C@@H](C)O)C(=O)N[C@@H](Cc2ccccc2)C(=O)N[C@H](CCCN)C(=O)N[C@@H](c2ccc(O[C@H]3O[C@H](CO)[C@@H](O)[C@H](O)[C@@H]3O[C@H]3O[C@H](CO)[C@@H](O)[C@H](O)[C@@H]3O)cc2)C(=O)N[C@H]([C@@H](C)O)C(=O)N[C@@H](c2ccc(O)cc2)C(=O)NCC(=O)N[C@@H](CC(C)C)C(=O)N[C@H](C)C(=O)N[C@@H](c2ccc(O)c(Cl)c2)C(=O)O[C@@H]1C(N)=O | 4 (≈ 1.51 µM) | 16 (≈ 6.06 µM) | 16 (≈ 6.06 µM) | 32 (≈ 12.1 µM) | 32 (≈ 12.1 µM) | 4 (≈ 1.51 µM) | 4 (≈ 1.51 µM) | 8 (≈ 3.03 µM) | 4 (≈ 1.51 µM) | > 32 | > 32 | 59 | 2 | 
CCCCc1ccc(C(=O)N[C@@H](CC(N)=O)C(=O)NC[C@@H]2C(=O)N[C@H](c3ccc(O)cc3)C(=O)N[C@H](CCCN)C(=O)N[C@H](C(C)C)C(=O)N[C@@H](c3ccc(O)cc3)C(=O)N[C@H](c3ccc(O)cc3)C(=O)N[C@@H]([C@@H](C)O)C(=O)N[C@@H](Cc3ccccc3)C(=O)N[C@H](CCCN)C(=O)N[C@@H](c3ccc(O[C@H]4O[C@H](CO)[C@@H](O)[C@H](O)[C@@H]4O[C@H]4O[C@H](CO)[C@@H](O)[C@H](O)[C@@H]4O)cc3)C(=O)N[C@H]([C@@H](C)O)C(=O)N[C@@H](c3ccc(O)cc3)C(=O)NCC(=O)N[C@@H](CC(C)C)C(=O)N[C@H](C)C(=O)N[C@@H](c3ccc(O)c(Cl)c3)C(=O)O[C@@H]2C(N)=O)cc1 | 0.25 (≈ 0.0965 µM) | 0.25 (≈ 0.0965 µM) | 0.5 (≈ 0.193 µM) | 4 (≈ 1.54 µM) | 2 (≈ 0.772 µM) | < 0.03 | 0.25 (≈ 0.0965 µM) | 0.25 (≈ 0.0965 µM) | 0.25 (≈ 0.0965 µM) | > 32 | > 32 | 91 | 47 | 
CCCCC(=O)N[C@@H](CC(N)=O)C(=O)NC[C@@H]1C(=O)N[C@H](c2ccc(O)cc2)C(=O)N[C@H](CCCN)C(=O)N[C@H](C(C)C)C(=O)N[C@@H](c2ccc(O)cc2)C(=O)N[C@H](c2ccc(O)cc2)C(=O)N[C@@H]([C@@H](C)O)C(=O)N[C@@H](Cc2ccccc2)C(=O)N[C@H](CCCN)C(=O)N[C@@H](c2ccc(O[C@H]3O[C@H](CO)[C@@H](O)[C@H](O)[C@@H]3O[C@H]3O[C@H](CO)[C@@H](O)[C@H](O)[C@@H]3O)cc2)C(=O)N[C@H]([C@@H](C)O)C(=O)N[C@@H](c2ccc(O)cc2)C(=O)NCC(=O)N[C@@H](CC(C)C)C(=O)N[C@H](C)C(=O)N[C@@H](c2ccc(O)c(Cl)c2)C(=O)O[C@@H]1C(N)=O | 8 (≈ 3.18 µM) | 8 (≈ 3.18 µM) | 8 (≈ 3.18 µM) | > 32 | 32 (≈ 12.7 µM) | 0.125 (≈ 0.0497 µM) | 8 (≈ 3.18 µM) | 8 (≈ 3.18 µM) | 8 (≈ 3.18 µM) | > 32 | > 32 | 0 | 0 | 
CC(C)C[C@@H]1NC(=O)CNC(=O)[C@H](c2ccc(O)cc2)NC(=O)[C@@H]([C@@H](C)O)NC(=O)[C@H](c2ccc(O[C@H]3O[C@H](CO)[C@@H](O)[C@H](O)[C@@H]3O[C@H]3O[C@H](CO)[C@@H](O)[C@H](O)[C@@H]3O)cc2)NC(=O)[C@@H](CCCN)NC(=O)[C@H](Cc2ccccc2)NC(=O)[C@H]([C@@H](C)O)NC(=O)[C@@H](c2ccc(O)cc2)NC(=O)[C@H](c2ccc(O)cc2)NC(=O)[C@@H](C(C)C)NC(=O)[C@@H](CCCN)NC(=O)[C@@H](c2ccc(O)cc2)NC(=O)[C@@H](CNC(=O)[C@H](CC(N)=O)NC(=O)c2ccc3ccccc3c2)[C@@H](C(N)=O)OC(=O)[C@H](c2ccc(O)c(Cl)c2)NC(=O)[C@@H](C)NC1=O | 0.125 (≈ 0.0484 µM) | 0.125 (≈ 0.0484 µM) | 0.25 (≈ 0.0967 µM) | 2 (≈ 0.774 µM) | 1 (≈ 0.387 µM) | ≤ 0.03 | 0.25 (≈ 0.0967 µM) | 0.25 (≈ 0.0967 µM) | 0.25 (≈ 0.0967 µM) | > 32 | > 32 | 40 | 8 | 
CCOc1ccc(C(=O)N[C@@H](CC(N)=O)C(=O)NC[C@@H]2C(=O)N[C@H](c3ccc(O)cc3)C(=O)N[C@H](CCCN)C(=O)N[C@H](C(C)C)C(=O)N[C@@H](c3ccc(O)cc3)C(=O)N[C@H](c3ccc(O)cc3)C(=O)N[C@@H]([C@@H](C)O)C(=O)N[C@@H](Cc3ccccc3)C(=O)N[C@H](CCCN)C(=O)N[C@@H](c3ccc(O[C@H]4O[C@H](CO)[C@@H](O)[C@H](O)[C@@H]4O[C@H]4O[C@H](CO)[C@@H](O)[C@H](O)[C@@H]4O)cc3)C(=O)N[C@H]([C@@H](C)O)C(=O)N[C@@H](c3ccc(O)cc3)C(=O)NCC(=O)N[C@@H](CC(C)C)C(=O)N[C@H](C)C(=O)N[C@@H](c3ccc(O)c(Cl)c3)C(=O)O[C@@H]2C(N)=O)cc1 | 2 (≈ 0.776 µM) | 1 (≈ 0.388 µM) | 2 (≈ 0.776 µM) | 32 (≈ 12.4 µM) | 8 (≈ 3.1 µM) | < 0.03 | 2 (≈ 0.776 µM) | 2 (≈ 0.776 µM) | 2 (≈ 0.776 µM) | > 32 | > 32 | 1 | 1 | 
CCCCOc1ccc(C(=O)N[C@@H](CC(N)=O)C(=O)NC[C@@H]2C(=O)N[C@H](c3ccc(O)cc3)C(=O)N[C@H](CCCN)C(=O)N[C@H](C(C)C)C(=O)N[C@@H](c3ccc(O)cc3)C(=O)N[C@H](c3ccc(O)cc3)C(=O)N[C@@H]([C@@H](C)O)C(=O)N[C@@H](Cc3ccccc3)C(=O)N[C@H](CCCN)C(=O)N[C@@H](c3ccc(O[C@H]4O[C@H](CO)[C@@H](O)[C@H](O)[C@@H]4O[C@H]4O[C@H](CO)[C@@H](O)[C@H](O)[C@@H]4O)cc3)C(=O)N[C@H]([C@@H](C)O)C(=O)N[C@@H](c3ccc(O)cc3)C(=O)NCC(=O)N[C@@H](CC(C)C)C(=O)N[C@H](C)C(=O)N[C@@H](c3ccc(O)c(Cl)c3)C(=O)O[C@@H]2C(N)=O)cc1OCCCC | 1 (≈ 0.373 µM) | 2 (≈ 0.747 µM) | 8 (≈ 2.99 µM) | 16 (≈ 5.97 µM) | 16 (≈ 5.97 µM) | 1 (≈ 0.373 µM) | 1 (≈ 0.373 µM) | 1 (≈ 0.373 µM) | 1 (≈ 0.373 µM) | > 32 | > 32 | 47 | 0 | 
